Results reported in patent US11377441B2, “Covalent inhibitors of KRAS” (Araxes Pharma LLC, priority 2017, dated 2022).

Biological target: T1, KRAS G12C 1-169, his-tagged protein, GDP-loaded (Homo sapiens, UniProt P01116, G12C)
T1 construct: KRAS G12C 1-169, his-tagged protein, GDP-loaded
Assay: Biochemical assay: covalent modification of KRAS G12C measured by mass spectrometry (RapidFire/TOF or Q-Exactive)
Assay type: binding
Conditions: covalent binding to (modification of) KRAS G12C after a ten minute incubation period
Procedure, shortened: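 GDP-loaded KRAS G12C 1-169 (his-tagged) at 2 μM or 0.5 μM in 20 mM Hepes, 150 mM NaCl, 1 mM MgCl2, incubated with compound at 100, 30 or 10 μM at room temperature for 10 min, 30 min, 2 h or 24 h, then quenched with formic acid. Intact-protein LC-MS, deconvolved; percent modification from modified versus unmodified protein.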

SMILES	Binding %
C=CC(=O)N1C[C@H](C)N(c2nc(N3CC(N(C)C)C3)nc3c(F)c(-c4cccc5c(Cl)n[nH]c45)c(Cl)cc23)C[C@H]1C [Compound 158, 1-((2R,5S)-4-(6-chloro-7-(3-chloro-1H-indazol-7-yl)-2-(3-(dimethylamino)azetidin-1-yl)-8-fluoroquinazolin-4-yl)-2,5-dimethylpiperazin-1-yl)prop-2-en-1-one]	++ (++ indicates binding activity from 50 to 80%)
C=CC(=O)N1C[C@H](C)N(c2nc(NCCCN3CCOCC3)nc3c(F)c(-c4c(C)ccc5[nH]nc(N)c45)c(Cl)cc23)C[C@H]1C [Compound 72, 1-((2R,5S)-4-(7-(3-amino-5-methyl-1H-indazol-4-yl)-6-chloro-8-fluoro-2-(3-morpholinopropylami-no)quinazolin-4-yl)-2,5-dimethylpiperazin-1-yl)prop-2-en-1-one]	+++ (+++ indicates binding activity greater than 80%)
C=CC(=O)N1C[C@H](C)N(c2nc(N3CC([N+](C)(C)C)C3)nc3c(F)c(-c4c(C)ccc5cnn(C)c45)c(Cl)cc23)C[C@H]1C [Compound 106, 1-((R)-4-((2S,5R)-4-acryloyl-2,5-dimethylpiperazin-1-yl)-6-chloro-7-(1,6-dimethyl-1H-indazol-7-yl)-8-fluoroquinazolin-2-yl)-N,N,N-trimethylazetidin-3-aminium]	+++ (+++ indicates binding activity greater than 80%)
C=CC(=O)N1C[C@H](C)N(c2nc(OC[C@@H]3CCCN3C)nc3c(F)c(-c4c(C)ccc5[nH]nc(C6CC6)c45)c(Cl)cc23)C[C@H]1C (atropisomer, axis not shown) [Compound 227, 1-((2R,5S)-4-((S)-6-chloro-7-(3-cyclopropyl-5-methyl-1H-indazol-4-yl)-8-fluoro-2-(((S)-1-methylpyrrolidin-2-yl)methoxy)quinazolin-4-yl)-2,5-dimethylpiperazin-1-yl)prop-2-en-1-one]	+ (+ indicates binding activity greater than 0% and up to 50%)
C=CC(=O)N1C[C@H](C)N(c2nc(N3CC(N(C)C)C3)nc3c(F)c(-c4c(C)ccc5onc(N)c45)c(Cl)cc23)C[C@H]1C (atropisomer, axis not shown) [Compound 96, 1-((2R,5S)-4-((S)-7-(3-amino-5-methylbenzo[d]isoxazol-4-yl)-6-chloro-2-(3-(dimethylamino)azetidin-1-yl)-8-fluoroquinazolin-4-yl)-2,5-dimethylpiperazin-1-yl)prop-2-en-1-one]	+ (+ indicates binding activity greater than 0% and up to 50%)
C=CC(=O)N1C[C@H](C)N(c2nc(OCCN3CCOCC3)nc3c(F)c(-c4c(C)ccc5[nH]nc(C6CC6)c45)c(Cl)cc23)C[C@H]1C (atropisomer, axis not shown) [Compound 113, 1-((2R,5S)-4-((R)-6-chloro-7-(3-cyclopropyl-5-methyl-1H-indazol-4-yl)-8-fluoro-2-(2-morpholinoethoxy)quina-zolin-4-yl)-2,5-dimethylpiperazin-1-yl)prop-2-en-1-one]	++ (++ indicates binding activity from 50 to 80%)
C=CC(=O)N1C[C@H](C)N(c2nc(N3CC(N(C)C)C3)nc3c(F)c(-c4c(C)ccc5[nH]nc(CC)c45)c(Cl)cc23)C[C@H]1C [Compound 61, 1-((2R,5S)-4-(6-chloro-2-(3-(dimethylamino)azetidin-1-yl)-7-(3-ethyl-5-methyl-1H-indazol-4-yl)-8-fluoroquinazolin-4-yl)-2,5-dimethylpiperazin-1-yl)prop-2-en-1-one]	+++ (+++ indicates binding activity greater than 80%)
C=CC(=O)N1C[C@H](C)N(c2nc(NC3CCN(C4CC4)CC3)nc3c(F)c(-c4c(C)ccc5[nH]nc(C6CC6)c45)c(Cl)cc23)C[C@H]1C (atropisomer, axis not shown) [Compound 111, 1-((2R,5S)-4-((R)-6-chloro-7-(3-cyclopropyl-5-methyl-1H-indazol-4-yl)-2-(1-cyclopropylpiperidin-4-ylamino)-8-fluoroquinazolin-4-yl)-2,5-dimethylpiperazin-1-yl)prop-2-en-1-one]	++ (++ indicates binding activity from 50 to 80%)
C=CC(=O)N1C[C@H](C)N(c2nc(OC[C@@H]3CN(C)CCO3)nc3c(F)c(-c4c(C)ccc5cnn(C)c45)c(Cl)cc23)C[C@H]1C [Compound 176, 1-((2R,5S)-4-(6-chloro-7-(1,6-dimethyl-1H-indazol-7-yl)-8-fluoro-2-(((S)-4-methylmorpholin-2-yl)methoxy)quinazolin-4-yl)-2,5-dimethylpiperazin-1-yl)prop-2-en-1-one]	+++ (+++ indicates binding activity greater than 80%)
C=CC(=O)N1C[C@H](C)N(c2nc(OC[C@@H]3COCCN3C)nc3c(F)c(-c4c(C)ccc5[nH]nc(C6CC6)c45)c(Cl)cc23)C[C@H]1C [Compound 183, 1-((2R,5S)-4-(6-chloro-7-(3-cyclopropyl-5-methyl-1H-indazol-4-yl)-8-fluoro-2-(((S)-4-methylmorpholin-3-yl)methoxy)quinazolin-4-yl)-2,5-dimethylpiperazin-1-yl)prop-2-en-1-one]	+++ (+++ indicates binding activity greater than 80%)
C=CC(=O)N1C[C@H](C)N(c2nc(NC3CCN(C4CC4)CC3)nc3c(F)c(-c4c(C)ccc5[nH]nc(C6CC6)c45)c(Cl)cc23)C[C@H]1C (atropisomer, axis not shown) [Compound 110, 1-((2R,5S)-4-((S)-6-chloro-7-(3-cyclopropyl-5-methyl-1H-indazol-4-yl)-2-(1-cyclopropylpiperidin-4-ylamino)-8-fluoroquinazolin-4-yl)-2,5-dimethylpiperazin-1-yl)prop-2-en-1-one]	+ (+ indicates binding activity greater than 0% and up to 50%)
C=CC(=O)N1C[C@H](C)N(c2nc(N3CC(N(C)C)C3)nc3c(F)c(-c4cccc5[nH]ncc45)c(Cl)cc23)C[C@H]1C [Compound 1, 1-((2R,5S)-4-(6-chloro-2-(3-(dimethylamino)azetidin-1-yl)-8-fluoro-7-(1H-indazol-4-yl)quinazolin-4-yl)-2,5-dimethylpiperazin-1-yl)prop-2-en-1-one]	++ (++ indicates binding activity from 50 to 80%)
C=CC(=O)N1C[C@H](C)N(c2nc(NCCN3CCOCC3)nc3c(F)c(-c4c(C)ccc5onc(N)c45)c(Cl)cc23)C[C@H]1C [Compound 92, 1-((2R,5S)-4-(7-(3-amino-5-methylbenzo[d]isoxazol-4-yl)-6-chloro-8-fluoro-2-(2-morpholinoethylamino)quinazolin-4-yl)-2,5-dimethylpiperazin-1-yl)prop-2-en-1-one]	++ (++ indicates binding activity from 50 to 80%)
C=CC(=O)N1C[C@H](C)N(c2nc(Nc3cnn(C)c3)nc3c(F)c(-c4c(C)ccc5onc(N)c45)c(Cl)cc23)C[C@H]1C [Compound 74, 1-((2R,5S)-4-(7-(3-amino-5-methylbenzo[d]osoxa-zol-4-yl)-6-chloro-8-fluoro-2-(1-methyl-1H-pyrazol-4-ylamino)quinazolin-4-yl)-2,5-dimethylpiperazin-1-yl)prop-2-en-1-one]	+ (+ indicates binding activity greater than 0% and up to 50%)
C=CC(=O)N1C[C@H](C)N(c2nc(NC3CCN(C4CC4)CC3)nc3c(F)c(-c4c(C)ccc5[nH]nc(N)c45)c(Cl)cc23)C[C@H]1C [Compound 80, 1-((2R,5S)-4-(7-(3-amino-5-methyl-1H-indazol-4-yl)-6-chloro-2-(1-cyclopropylpiperidin-4-ylamino)-8-fluoroquinazolin-4-yl)-2,5-dimethylpiperazin-1-yl)prop-2-en-1-one]	+++ (+++ indicates binding activity greater than 80%)
C=CC(=O)N1C[C@H](C)N(c2nc(OCCN3CC(F)(F)C3)nc3c(F)c(-c4c(C)ccc5[nH]nc(C6CC6)c45)c(Cl)cc23)C[C@H]1C (atropisomer, axis not shown) [Compound 122, 1-((2R,5S)-4-((R)-6-chloro-7-(3-cyclopropyl-5-methyl-1H-indazol-4-yl)-2-(2-(3,3-difluoroazetidin-1-yl)ethoxy)-8-fluoroquinazolin-4-yl)-2,5-dimethylpiperazin-1-yl)prop-2-en-1-one]	+++ (+++ indicates binding activity greater than 80%)
[2H]C([2H])([2H])N(C1CN(c2nc(N3C[C@@H](C)N(C(=O)C=C)C[C@@H]3C)c3cc(Cl)c(-c4c(C)ccc5[nH]nc(C6CC6)c45)c(F)c3n2)C1)C([2H])([2H])[2H] (atropisomer, axis not shown) [Compound 224, 1-((2R,5S)-4-((R)-6-chloro-7-(3-cyclopropyl-5-methyl-1H-indazol-4-yl)-2-(3-(di-perdeuteromethylamino)azetidin-1-yl)-8-fluoroquinazolin-4-yl)-2,5-dimethylpiperazin-1-yl)prop-2-en-1-one]	+ (+ indicates binding activity greater than 0% and up to 50%)
C=CC(=O)N1C[C@H](C)N(c2nc(OC[C@H]3COCCN3C)nc3c(F)c(-c4c(C)ccc5cnn(C)c45)c(Cl)cc23)C[C@H]1C [Compound 178, 1-((2R,5S)-4-(6-chloro-7-(1,6-dimethyl-1H-indazol-7-yl)-8-fluoro-2-(((R)-4-methylmorpholin-3-yl)methoxy)quinazolin-4-yl)-2,5-dimethylpiperazin-1-yl)prop-2-en-1-one]	++ (++ indicates binding activity from 50 to 80%)
C=CC(=O)N1C[C@@H](C)N(c2nc(N3CC(N(C)C)C3)nc3c(F)c(-c4c(C)ccc5cnn(C)c45)c(Cl)cc23)C[C@@H]1C (atropisomer, axis not shown) [Compound 246, 1-((2S,5R)-4-((R)-6-chloro-7-(1,6-dimethyl-1H-indazol-7-yl)-2-(3-(dimethylamino)azetidin-1-yl)-8-fluoroquinazolin-4-yl)-2,5-dimethylpiperazin-1-yl)prop-2-en-1-one]	+ (+ indicates binding activity greater than 0% and up to 50%)
